ChEMBL document CHEMBL4422618, “Translational impact of novel widely pharmacological characterized mofezolac-derived COX-1 inhibitors combined with bortezomib on human multiple myeloma cell lines viability” (Eur J Med Chem, 2019)
Calls of active or inactive are those of the source. The rule behind the calls is not given here.

Tests used:
[1] = molecular target: T1, Prostaglandin G/H synthase 1 (Ovis aries, UniProt P05979); experiment: Inhibition of ovine COX1 using arachidonic acid as substrate by colorimetric assay
T1 sequence (P05979 whole entry): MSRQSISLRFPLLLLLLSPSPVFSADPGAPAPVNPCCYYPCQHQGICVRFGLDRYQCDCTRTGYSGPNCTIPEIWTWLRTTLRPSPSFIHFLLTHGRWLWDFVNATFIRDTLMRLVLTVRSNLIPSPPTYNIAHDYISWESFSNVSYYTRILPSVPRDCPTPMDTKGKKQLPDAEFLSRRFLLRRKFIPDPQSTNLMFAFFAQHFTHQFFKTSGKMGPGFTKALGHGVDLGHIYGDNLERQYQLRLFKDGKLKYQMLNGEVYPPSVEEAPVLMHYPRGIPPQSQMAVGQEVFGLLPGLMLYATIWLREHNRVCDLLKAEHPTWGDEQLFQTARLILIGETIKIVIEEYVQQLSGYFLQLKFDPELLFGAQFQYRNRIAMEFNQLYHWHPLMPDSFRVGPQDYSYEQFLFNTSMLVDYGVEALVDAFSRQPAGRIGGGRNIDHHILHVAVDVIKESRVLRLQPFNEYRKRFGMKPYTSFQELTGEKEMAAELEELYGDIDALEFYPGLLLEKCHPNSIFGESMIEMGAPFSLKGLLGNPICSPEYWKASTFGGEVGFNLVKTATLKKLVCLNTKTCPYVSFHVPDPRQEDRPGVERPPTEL

[2] = molecular target: T2, Prostaglandin G/H synthase 2 (Homo sapiens, UniProt P35354); experiment: Inhibition of human COX2 using arachidonic acid as substrate by colorimetric assay
T2 sequence (P35354 whole entry): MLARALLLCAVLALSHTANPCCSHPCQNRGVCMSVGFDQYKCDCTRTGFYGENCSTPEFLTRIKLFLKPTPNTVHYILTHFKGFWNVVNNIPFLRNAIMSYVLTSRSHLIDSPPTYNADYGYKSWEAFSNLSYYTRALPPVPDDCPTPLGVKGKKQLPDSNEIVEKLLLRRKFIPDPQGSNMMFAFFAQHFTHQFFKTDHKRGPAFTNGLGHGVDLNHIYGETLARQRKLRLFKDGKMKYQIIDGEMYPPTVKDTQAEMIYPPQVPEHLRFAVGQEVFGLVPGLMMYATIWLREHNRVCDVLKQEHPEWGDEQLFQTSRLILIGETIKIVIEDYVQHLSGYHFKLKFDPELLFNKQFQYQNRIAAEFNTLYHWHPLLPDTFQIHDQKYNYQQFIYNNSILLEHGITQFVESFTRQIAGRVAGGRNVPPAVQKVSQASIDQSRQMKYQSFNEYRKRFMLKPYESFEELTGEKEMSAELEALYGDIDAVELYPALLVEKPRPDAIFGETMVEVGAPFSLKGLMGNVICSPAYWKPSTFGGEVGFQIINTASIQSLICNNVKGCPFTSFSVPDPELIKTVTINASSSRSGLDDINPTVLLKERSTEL

[3] = molecular target: T3, Prostaglandin G/H synthase 1 (Ovis aries) (UniProt P05979); experiment: Inhibition of ovine COX1 at 50 uM using arachidonic acid as substrate by colorimetric assay relative to control
T3 sequence (whole entry): T1 sequence (P05979 whole entry)

[4] = molecular target: T4, Prostaglandin G/H synthase 2 (Homo sapiens) (UniProt P35354); experiment: Inhibition of human COX2 at 50 uM using arachidonic acid as substrate by colorimetric assay relative to control
T4 sequence (whole entry): T2 sequence (P35354 whole entry)

[5] = Selectivity index, ratio of IC50 for human COX2 to IC50 for ovine COX1
[6] = molecular target: T3, Prostaglandin G/H synthase 1 (Ovis aries); experiment: Inhibition of ovine COX1 at 10 uM using arachidonic acid as substrate by colorimetric assay relative to control
[7] = Genotoxicity in Escherichia coli PQ35 at 500 uM after overnight incubation by SOS chromotest; type: toxicity
[8] = Genotoxicity in Escherichia coli PQ37 at 500 uM after overnight incubation by SOS chromotest; type: toxicity
RPMI-8226 [9] = experiment: Cytotoxicity against human RPMI8226 cells assessed as reduction in cell viability at 3 nM after 48 hrs by CCK8 assay relative to control; type: functional
RPMI-8226 [10] = experiment: Cytotoxicity against human RPMI8226 cells assessed as reduction in cell viability at 2 nM after 48 hrs by CCK8 assay; type: functional, cell-based
NCI-H929 [11] = experiment: Cell cycle arrest in human NCI-H929 cells assessed as accumulation at S phase at 2 nM after 48 hrs by propidium iodide/RNase staining based flow cytometric method relative to control; type: functional
NCI-H929 [12] = experiment: Cell cycle arrest in human NCI-H929 cells assessed as accumulation at G0/G1 phase at 2 nM after 48 hrs by propidium iodide/RNase staining based flow cytometric method relative to control; type: functional
RPMI-8226 [13] = experiment: Cell cycle arrest in human RPMI8226 cells assessed as accumulation at G0/G1 phase at 3 nM after 48 hrs by propidium iodide/RNase staining based flow cytometric method; type: functional
RPMI-8226 [14] = experiment: Cell cycle arrest in human RPMI8226 cells assessed as accumulation at S phase at 3 nM after 48 hrs by propidium iodide/RNase staining based flow cytometric method; type: functional
NCI-H929 [15] = experiment: Induction of apoptosis in human NCI-H929 cells assessed as early apoptotic cells at 2 nM after 48 hrs by Annexin-V/propidium iodide staining based flow cytometric method (reference value: 17.1%); type: functional
NCI-H929 [16] = experiment: Induction of apoptosis in human NCI-H929 cells assessed as late apoptotic cells at 2 nM after 48 hrs by Annexin-V/propidium iodide staining based flow cytometric method (reference value: 0.23%); type: functional
NCI-H929 [17] = experiment: Induction of apoptosis in human NCI-H929 cells assessed as necrotic cells at 2 nM after 48 hrs by Annexin-V/propidium iodide staining based flow cytometric method (reference value: 0.0034%); type: functional
NCI-H929 [18] = experiment: Induction of apoptosis in human NCI-H929 cells assessed as viable cells at 2 nM after 48 hrs by Annexin-V/propidium iodide staining based flow cytometric method (reference value: 82.6%); type: functional; details: NCI-H929, 48 h, read-out: Activity
RPMI-8226 [19] = experiment: Induction of apoptosis in human RPMI8226 cells assessed as early apoptotic cells at 3 nM after 48 hrs by Annexin-V/propidium iodide staining based flow cytometric method (reference value: 1.05%); type: functional
RPMI-8226 [20] = experiment: Induction of apoptosis in human RPMI8226 cells assessed as late apoptotic cells at 3 nM after 48 hrs by Annexin-V/propidium iodide staining based flow cytometric method (reference value: 0.21%); type: functional
RPMI-8226 [21] = experiment: Induction of apoptosis in human RPMI8226 cells assessed as necrotic cells at 3 nM after 48 hrs by Annexin-V/propidium iodide staining based flow cytometric method (reference value: 0.090%); type: functional
RPMI-8226 [22] = experiment: Induction of apoptosis in human RPMI8226 cells assessed as viable cells at 3 nM after 48 hrs by Annexin-V/propidium iodide staining based flow cytometric method (reference value: 98.7%); type: functional; details: RPMI-8226, 48 h, read-out: Activity
RPMI-8226 [23] = experiment: Cytotoxicity against human RPMI8226 cells assessed as reduction in cell viability at 2 nM after 48 hrs by CCK8 assay relative to control; type: functional, cell-based
Plasma [24] = experiment: Anticoagulant activity in human platelet poor plasma assessed as activated partial thromboplastin time at 100 uM incubated for 15 mins at room temperature and subsequent incubation for 2 mins at 37 degreeC followed by cephalin addition and measured after 2 mins for every secs in presence of CaCl2; type: functional
Plasma [25] = experiment: Anticoagulant activity in human platelet poor plasma assessed as prothrombin time at 100 uM incubated for 15 mins at room temperature and subsequent incubation for 2 mins at 37 degreeC followed by PBS addition and measured after 3 mins for every secs in presence of calcium thromboplastin; type: functional

SMILES	IC50 [1] [µM]	IC50 [2] [µM]	inhibition [3] [%]	further results
COc1ccc(-c2noc(N)c2-c2ccc(OC)cc2)cc1	8.3	> 50	89	–
COc1ccc(-c2noc(CF)c2-c2ccc(OC)cc2)cc1	0.35	0.3	100	inhibition [4]: 85%
COc1ccc(-c2c(-c3ccc(F)cc3)noc2N)cc1	13	> 50	83	–
Nc1onc(-c2ccc([N+](=O)[O-])cc2)c1-c1ccc(F)cc1	12	> 50	71	–
COc1ccc(-c2noc(C)c2-c2ccc(OC)cc2)cc1	–	0.35	–	Ratio IC50 [5]: 4.6
COc1ccc(-c2c(-c3ccc(N)cc3)noc2CC(=O)O)cc1	> 50	> 50	33	inhibition [4]: 42%
CS(=O)(=O)c1ccc(-c2noc(N)c2-c2ccc(F)cc2)cc1	> 50	> 50	–	–
COc1ccc(-c2c(-c3ccc(F)cc3)noc2C)cc1	3	> 50	94	–
COc1ccc(-c2noc(CBr)c2-c2ccc(OC)cc2)cc1	0.1	0.18	93	inhibition [4]: 63%
Cc1onc(-c2ccc([N+](=O)[O-])cc2)c1-c1ccc(F)cc1	> 50	> 50	–	–
Cc1onc(-c2ccc(S(C)(=O)=O)cc2)c1-c1ccc(F)cc1	> 50	0.07	24	inhibition [4]: 52%
COc1ccc(-c2c(-c3ccc(N)cc3)noc2C)cc1	23	> 50	53	–
COc1ccc(-c2c(-c3ccc([N+](=O)[O-])cc3)noc2C)cc1	–	> 50	–	inhibition [6]: 36%
COc1ccc(-c2c(-c3ccc(NC(C)=O)cc3)noc2CC(=O)O)cc1	12	> 50	79	–
COc1ccc(-c2c(-c3ccc(F)cc3)noc2CC(=O)O)cc1	7.5	> 50	92	–
COc1ccc(-c2noc(CCO)c2-c2ccc(OC)cc2)cc1	0.12	0.19	100	Ratio IC50 [5]: 1.6; inhibition [4]: 82%
O=[N+]([O-])c1cc[n+]([O-])c2ccccc12 [4-NITROQUINOLINE-1-OXIDE]	–	–	–	Activity [7]: Toxic; Activity [8]: Toxic
CC(C)C[C@H](NC(=O)[C@H](Cc1ccccc1)NC(=O)c1cnccn1)B(O)O [BORTEZOMIB]	–	–	–	Activity (RPMI-8226 [9]): 53%; Activity (RPMI-8226 [10]): Active; Activity (NCI-H929 [11]): 10%; Activity (NCI-H929 [12]): 10%; Activity (RPMI-8226 [13]): inactive; Activity (RPMI-8226 [14]): inactive; Activity (NCI-H929 [15]): 48.7%; Activity (NCI-H929 [16]): 0.14%; Activity (NCI-H929 [17]): 0.033%; viability at 0.002 µM (NCI-H929 [18]): 51.1%; Activity (RPMI-8226 [19]): 8.81%; Activity (RPMI-8226 [20]): 0.11%; Activity (RPMI-8226 [21]): 0.0918%; viability at 0.003 µM (RPMI-8226 [22]): 91.1%; Activity (RPMI-8226 [23]): Active
O=C(NC[C@H]1CN(c2ccc(N3CCOCC3=O)cc2)C(=O)O1)c1ccc(Cl)s1 [RIVAROXABAN]	–	–	–	APTT (Plasma [24]): 300 s; PT (Plasma [25]): 300 s
